Reference: the supplement of paper PMC4862054

Experiments:
Assay in all cases: normalised response (% of control), CellTiter-Glo; higher = more viable cells (100 = DMSO, 0 = benzethonium chloride kill control)
Conditions in all cases: incubation time: 72 h
BT-474 = tested on: BT-474
Procedure, shortened: (§1)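 Breast cancer cell lines were exposed for 72 h in 384-well plates to compound at 5 concentrations, 10-fold apart, covering a 10,000-fold range fixed for each compound. Plates were read for CellTox Green fluorescence and CellTiter-Glo luminescence and normalised to 0.1 % DMSO (100) and a positive kill control (0). Each value is the normalised signal at one concentration of the series.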

BT-549 = tested on: BT-549
Procedure, shortened: as §1

CAL-120 = tested on: CAL-120
Procedure, shortened: as §1

CAL-148 = tested on: CAL-148
Procedure, shortened: as §1

CAL-51 = tested on: CAL-51
Procedure, shortened: as §1

CAL-85-1 = tested on: CAL-85-1
Procedure, shortened: as §1

DU-4475 = tested on: DU-4475
Procedure, shortened: as §1

HCC1143 = tested on: HCC1143
Procedure, shortened: as §1

HCC1599 = tested on: HCC1599
Procedure, shortened: as §1

HCC1937 = tested on: HCC1937
Procedure, shortened: as §1

HDQ-P1 = tested on: HDQ-P1
Procedure, shortened: as §1

Hs578T = tested on: Hs578T
Procedure, shortened: as §1

MCF-10A = tested on: MCF-10A
Procedure, shortened: as §1

MDA-MB-231 = tested on: MDA-MB-231
Procedure, shortened: as §1

MDA-MB-436 = tested on: MDA-MB-436
Procedure, shortened: as §1

MDA-MB-453 = tested on: MDA-MB-453
Procedure, shortened: as §1

MDA-MB-468 = tested on: MDA-MB-468
Procedure, shortened: as §1

MFM-223 = tested on: MFM-223
Procedure, shortened: as §1

SK-BR-3 = tested on: SK-BR-3
Procedure, shortened: as §1

Structure (SMILES)	normalised response (BT-474) [%]	normalised response (BT-549) [%]	normalised response (CAL-120) [%]	normalised response (CAL-148) [%]	normalised response (CAL-51) [%]	normalised response (CAL-85-1) [%]	normalised response (DU-4475) [%]	normalised response (HCC1143) [%]	normalised response (HCC1599) [%]	normalised response (HCC1937) [%]	normalised response (HDQ-P1) [%]	normalised response (Hs578T) [%]	normalised response (MCF-10A) [%]	normalised response (MDA-MB-231) [%]	normalised response (MDA-MB-436) [%]	normalised response (MDA-MB-453) [%]	normalised response (MDA-MB-468) [%]	normalised response (MFM-223) [%]	normalised response (SK-BR-3) [%]
COc1cc2nccc(Oc3ccc(NC(=O)Nc4cc(C)on4)c(Cl)c3)c2cc1OC [Tivozanib] (1 nM)	91.4	102	95.7	94.3	108	93	97.5	94.2	88.6	92.7	93.5	91	79	98.9	83.2	94.7	97.3	88.6	91.2
O=C(O)C(=O)O.[NH-][C@@H]1CCCC[C@H]1[NH-].[Pt+2] [Oxaliplatin] (10 nM)	101	96.8	101	83.7	124	98.7	90.9	94	95	94.8	99.8	101	91	92.7	104	81.9	97.2	92	98.4
Cc1ccc(-c2cc(C(F)(F)F)nn2-c2ccc(S(N)(=O)=O)cc2)cc1 [Celecoxib] (1 nM)	96.5	104	96.8	102	88.1	104	95.5	96.8	93.6	95.9	97.4	105	98.8	98	95.1	111	102	102	102
Nc1ccccc1NC(=O)c1ccc(CNC(=O)OCc2cccnc2)cc1 [Entinostat] (1 nM)	92.8	103	99.2	98.2	85.2	106	99.7	103	95.6	99.2	102	98.8	98.1	102	102	114	106	97.2	102
C=CCc1cccc(/C=N/NC(=O)CN2CCN(Cc3ccccc3)CC2)c1O [PAC-1] (10 nM)	98.4	97.7	94.6	107	108	100	106	100	112	103	98.9	103	112	100	98.3	104	111	110	107
CC(=O)Nc1cccc(-n2c(=O)n(C3CC3)c(=O)c3c(Nc4ccc(I)cc4F)n(C)c(=O)c(C)c32)c1 [Trametinib] (0.25 nM)	109	92.7	102	111	122	98.6	96.3	99.1	99.7	99.2	108	94.7	82.5	107	104	100	98.8	109	105
CC[C@@H]1C(=O)N(C)c2cnc(Nc3ccc(C(=O)NC4CCN(C)CC4)cc3OC)nc2N1C1CCCC1 [BI 2536] (1 nM)	101	98.2	97.2	112	133	100	107	100	108	94.6	97.8	96.7	102	101	100	84.6	92.6	96.5	97.2
COc1cc2c(Oc3ccc4[nH]c(C)cc4c3F)ncnc2cc1OCCCN1CCCC1 [Cediranib] (1 nM)	104	101	105	106	131	109	102	106	93.9	94.7	98.6	97	104	101	97.8	99.7	113	108	99.8
C[C@H]1C[C@@H]2[C@H]([C@@H](O)C[C@@]3(C)[C@H]2CC[C@]3(O)C(=O)CO)[C@@]2(C)C=CC(=O)C=C12 [Methylprednisolone] (1 nM)	110	100	103	120	100	94.5	108	99.1	113	99.3	99.6	103	103	105	99.5	116	104	103	109
Cc1cnc(NC(=O)Nc2cc(Br)c(C)cc2OC[C@@H]2CNCCO2)cn1 [Rabusertib] (0.1 nM)	109	103	107	112	108	107	109	103	88.5	101	102	102	109	104	106	114	101	103	111
CC[C@@H]1C(=O)N(C)c2cnc(Nc3ccc(C(=O)NC4CCN(C)CC4)cc3OC)nc2N1C1CCCC1 [BI 2536] (0.1 nM)	105	103	104	102	103	105	103	94.9	110	98.7	95.7	97.4	106	103	104	92.6	108	106	112
O=C(/C=C/c1cccnc1)NCCCCC1CCN(C(=O)c2ccccc2)CC1 [Daporinad] (0.1 nM)	106	98.4	101	101	112	101	103	94	108	101	98.4	96.3	102	101	101	102	96.9	109	108
CCCS(=O)(=O)Nc1ccc(F)c(C(=O)c2c[nH]c3ncc(-c4ccc(Cl)cc4)cc23)c1F [Vemurafenib] (10 nM)	95.5	91.2	95.2	87.8	109	90.9	93.2	97.6	99.6	98.8	94.9	95.8	89.2	91.3	88.7	87.6	88.2	89.8	71.8
COc1cc2nccc(Oc3ccc(NC(=O)Nc4cc(C)on4)c(Cl)c3)c2cc1OC [Tivozanib] (10 nM)	89.9	100	97.4	82.1	85.4	93.5	99.1	99.9	98.2	98.7	100	94.3	90.3	98.5	94.2	91.7	93.5	87.2	80.7
C=CC(=O)Nc1cc2c(Nc3ccc(F)c(Cl)c3)ncnc2cc1OCCCN1CCOCC1 [Canertinib] (10 nM)	106	95.6	91.7	102	84.3	99.6	107	99.8	93.8	89.5	82.4	103	76.6	106	99.2	99.1	96.3	103	91
CC[C@H](C)C(=O)O[C@H]1C[C@H](O)C=C2C=C[C@H](C)[C@H](CC[C@@H](O)C[C@@H](O)CC(=O)O)[C@H]21 [Pravastatin] (1 nM)	99.6	102	101	87.5	104	92.6	95.5	95.1	117	97.6	103	101	96	102	99.6	99.8	99.9	93.1	94.2
CC[C@H](C)C(=O)O[C@H]1C[C@H](O)C=C2C=C[C@H](C)[C@H](CC[C@@H](O)C[C@@H](O)CC(=O)O)[C@H]21 [Pravastatin] (10 nM)	98.1	92.2	105	98.7	128	104	91.5	97.3	88.5	95.4	106	100	102	99.1	97.7	85.2	104	92.3	95.6
CCN(CC)CCCC(C)Nc1c2ccc(Cl)cc2nc2ccc(OC)cc12 (stereo not given) [Mepacrine] (5 nM)	96.1	104	107	94.5	97.8	93.8	96.2	97.5	95.6	102	105	100	107	99.8	111	96.9	100	97.2	104
O=C(/C=C/c1cccnc1)NCCCCC1CCN(C(=O)c2ccccc2)CC1 [Daporinad] (1 nM)	106	98	105	101	114	103	105	106	106	101	98.1	97.1	106	101	105	88.8	103	87.2	113
C=CCc1cccc(/C=N/NC(=O)CN2CCN(Cc3ccccc3)CC2)c1O [PAC-1] (1 nM)	97.7	105	96.8	96	129	99.7	100	101	101	106	105	104	113	103	97.5	103	109	102	109
